Test results from ChEMBL document CHEMBL1201862, “PubChem BioAssay data set” (2004).
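Test compounds were applied to cells in 96-well plates for 48 hours at 5 doses. GI50 marks 50% less growth.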 Calls of active or inactive are those of the source. Rule as the data show it: active = GI50 up to about 1.1 µM and inactive = higher.

Assays:
Experiment in all cases: NCI anticancer screen, dose series, 48 h
[1] = system: OVCAR-5
[2] = system: A498
[3] = system: IGROV-1
[4] = system: OVCAR-4
[5] = system: HCT-116
[6] = system: SK-OV-3
[7] = system: MDA-N
[8] = system: Malme-3M
[9] = system: MDA-MB-231
[10] = system: U-251
[11] = system: HCC 2998
[12] = system: NCI-H460
[13] = system: MOLT-4
[14] = system: SK-MEL-28
[15] = system: SF-268
[16] = system: CCRF-CEM
[17] = system: SNB-19
[18] = system: NCI-H23
[19] = system: SW-620

Row | SMILES | GI50 [1] | GI50 [2] | GI50 [3] | GI50 [4] | GI50 [5] | GI50 [6] | GI50 [7] | GI50 [8] | GI50 [9] | GI50 [10] | GI50 [11] | GI50 [12] | GI50 [13] | GI50 [14] | GI50 [15] | GI50 [16] | GI50 [17] | GI50 [18] | GI50 [19]
1 | Cc1ccc(N2C(=O)C(O)=C(C(=O)C(C)(C)C)C2c2ccc([N+](=O)[O-])cc2)cc1 (stereo unspecified) | 49.2 µM (inactive) | 29.3 µM (inactive) | 11.5 µM (inactive) | 6.71 µM (inactive) | 16 µM (inactive) | 20.8 µM (inactive) | 26 µM (inactive) | 19 µM (inactive) | 18.9 µM (inactive) | 26.6 µM (inactive) | 17.7 µM (inactive) | 9.27 µM (inactive) | 7.26 µM (inactive) | 21.5 µM (inactive) | 13 µM (inactive) | 26.3 µM (inactive) | 19.4 µM (inactive) | 15.4 µM (inactive) | –
2 | CC1=C[C@H]([C@H]2C=C(C)C(C(N)=O)=CN2Cc2c(Cl)cccc2Cl)N(Cc2c(Cl)cccc2Cl)C=C1C(N)=O | > 75 µM (inactive) | 55.3 µM (inactive) | – | 55.5 µM (inactive) | > 75 µM (inactive) | > 75 µM (inactive) | 48.9 µM (inactive) | > 75 µM (inactive) | > 75 µM (inactive) | > 75 µM (inactive) | > 75 µM (inactive) | > 75 µM (inactive) | > 75 µM (inactive) | > 75 µM (inactive) | > 75 µM (inactive) | 45.4 µM (inactive) | > 75 µM (inactive) | > 75 µM (inactive) | > 75 µM (inactive)
3 | COc1ccc(/C=C2/S/C(=N\c3ccccc3)N(NC(=O)Cc3ccccc3)C2=O)cc1 | > 100 µM (inactive) | > 100 µM (inactive) | > 100 µM (inactive) | 74.3 µM (inactive) | > 100 µM (inactive) | > 100 µM (inactive) | > 100 µM (inactive) | – | > 100 µM (inactive) | > 100 µM (inactive) | > 100 µM (inactive) | > 100 µM (inactive) | > 100 µM (inactive) | > 100 µM (inactive) | > 100 µM (inactive) | > 100 µM (inactive) | > 100 µM (inactive) | > 100 µM (inactive) | > 100 µM (inactive)
4 | C=C(C=O)c1c2c(nc3ccccc13)C(=O)c1ccccc1C2=O | 1.9 µM (inactive) | 1.46 µM (inactive) | 0.252 µM (active) | 1.77 µM (inactive) | 0.619 µM (active) | 2.9 µM (inactive) | 0.202 µM (active) | 1.42 µM (inactive) | 1.18 µM (inactive) | 0.482 µM (active) | 2.75 µM (inactive) | 0.581 µM (active) | 0.282 µM (active) | 0.684 µM (active) | 0.668 µM (active) | 0.191 µM (active) | 1.64 µM (inactive) | 0.481 µM (active) | 0.518 µM (active)
5 | CNC(=O)Nc1ccccc1 | > 100 µM (inactive) | > 100 µM (inactive) | > 100 µM (inactive) | > 100 µM (inactive) | > 100 µM (inactive) | – | > 100 µM (inactive) | > 100 µM (inactive) | > 100 µM (inactive) | > 100 µM (inactive) | > 100 µM (inactive) | > 100 µM (inactive) | > 100 µM (inactive) | > 100 µM (inactive) | > 100 µM (inactive) | > 100 µM (inactive) | > 100 µM (inactive) | > 100 µM (inactive) | > 100 µM (inactive)
6 | COc1cc2cc(C(=O)N3CC(CCl)c4ccc(O)cc43)[nH]c2c(OC)c1OC (stereo unspecified) | 0.129 µM (active) | < 0.01 µM (active) | 0.0198 µM (active) | 0.00491 µM (active) | < 0.0001 µM (active) | – | < 0.01 µM (active) | 0.00344 µM (active) | 0.00196 µM (active) | 0.000791 µM (active) | 0.000593 µM (active) | – | 0.000865 µM (active) | 0.00196 µM (active) | 0.00596 µM (active) | < 0.01 µM (active) | 0.00406 µM (active) | 0.00199 µM (active) | 0.00233 µM (active)
7 | FC(F)(F)c1ccccc1C1SCC2=Nc3ccccc3CN21 (stereo unspecified) | 12 µM (inactive) | 17.1 µM (inactive) | 16.1 µM (inactive) | 15.4 µM (inactive) | 11.1 µM (inactive) | 18.6 µM (inactive) | 29.5 µM (inactive) | – | 23.5 µM (inactive) | 28.4 µM (inactive) | 14.5 µM (inactive) | 15.7 µM (inactive) | 21.8 µM (inactive) | 19.3 µM (inactive) | 15.1 µM (inactive) | 26.5 µM (inactive) | 10.1 µM (inactive) | 11.9 µM (inactive) | 32.4 µM (inactive)
8 | CNC(=O)/C(C#N)=C(\N)N1CCCC1 | > 100 µM (inactive) | > 100 µM (inactive) | > 100 µM (inactive) | – | > 100 µM (inactive) | > 100 µM (inactive) | > 100 µM (inactive) | > 100 µM (inactive) | > 100 µM (inactive) | > 100 µM (inactive) | > 100 µM (inactive) | > 100 µM (inactive) | > 100 µM (inactive) | > 100 µM (inactive) | > 100 µM (inactive) | > 100 µM (inactive) | > 100 µM (inactive) | > 100 µM (inactive) | > 100 µM (inactive)
9 | COc1ccc(/C=C2\N/C(=N\N=C/C(O)C(O)C(O)C(O)CO)NC2=O)cc1 (stereo unspecified) | > 100 µM (inactive) | 26.9 µM (inactive) | 73.6 µM (inactive) | 24 µM (inactive) | 53.6 µM (inactive) | 24.9 µM (inactive) | 20.1 µM (inactive) | 23.1 µM (inactive) | 32.7 µM (inactive) | 20.7 µM (inactive) | 11.6 µM (inactive) | 42.7 µM (inactive) | 8.63 µM (inactive) | 44 µM (inactive) | 22.7 µM (inactive) | 38.1 µM (inactive) | – | 23.6 µM (inactive) | 76 µM (inactive)
10 | C/C(=N\O)c1ccc(Nc2nc3ccccc3c3occc23)cc1 | 8.3 µM (inactive) | 8.41 µM (inactive) | 7.01 µM (inactive) | – | 4.89 µM (inactive) | 18.6 µM (inactive) | 11.8 µM (inactive) | 19.9 µM (inactive) | 2.76 µM (inactive) | 12.6 µM (inactive) | 4.1 µM (inactive) | 1.82 µM (inactive) | 3 µM (inactive) | – | 6.31 µM (inactive) | 4 µM (inactive) | 16.1 µM (inactive) | 15.6 µM (inactive) | –
11 | N#CCN(Cc1ccccc1)[C@H]1CCC[C@]1(O)/C=C/c1ccc2c(c1)OCO2 | 39.3 µM (inactive) | 37.2 µM (inactive) | 23.1 µM (inactive) | 29 µM (inactive) | – | 46.6 µM (inactive) | 17.6 µM (inactive) | 17.6 µM (inactive) | 21.4 µM (inactive) | 19.2 µM (inactive) | 18.4 µM (inactive) | 18.3 µM (inactive) | 21.7 µM (inactive) | 17.3 µM (inactive) | 34.4 µM (inactive) | 16.4 µM (inactive) | 25.2 µM (inactive) | 24.9 µM (inactive) | 20.8 µM (inactive)
12 | CC(=O)O[C@H]1C[C@H]2[C@@H](OC(C)=O)/C=C3\C[C@](C)(C(=O)[C@H](O)C(=C1C)C2(C)C)[C@@H](O)C[C@@H]3OC(=O)[C@H](O)[C@H](c1ccccc1)N(C)C | > 100 µM (inactive) | > 100 µM (inactive) | > 100 µM (inactive) | > 100 µM (inactive) | > 100 µM (inactive) | > 100 µM (inactive) | > 100 µM (inactive) | > 100 µM (inactive) | > 100 µM (inactive) | > 100 µM (inactive) | – | > 100 µM (inactive) | > 100 µM (inactive) | > 100 µM (inactive) | > 100 µM (inactive) | > 100 µM (inactive) | > 100 µM (inactive) | > 100 µM (inactive) | > 100 µM (inactive)
13 | COC(=O)[C@@H](Cc1ccccc1)N1O[C@]12CCCC[C@@H]2NC(=O)OC(C)(C)C (stereo partly specified) | 25.1 µM (inactive) | 41.8 µM (inactive) | 14.7 µM (inactive) | 31.6 µM (inactive) | 38.7 µM (inactive) | – | 20.4 µM (inactive) | 22.1 µM (inactive) | 19.5 µM (inactive) | 26.9 µM (inactive) | 59.6 µM (inactive) | 25.5 µM (inactive) | 37.5 µM (inactive) | 22.1 µM (inactive) | 18 µM (inactive) | 14.7 µM (inactive) | 74.3 µM (inactive) | 21.3 µM (inactive) | 15.8 µM (inactive)
14 | c1ccc(C(=NNc2nc3ccccc3o2)c2ccccn2)nc1 | < 0.0175 µM (active) | 0.182 µM (active) | – | 0.0261 µM (active) | < 0.0117 µM (active) | 0.0292 µM (active) | 0.191 µM (active) | 0.0182 µM (active) | 0.055 µM (active) | 0.0998 µM (active) | 0.0391 µM (active) | – | < 0.0105 µM (active) | – | 0.0841 µM (active) | < 0.01 µM (active) | 0.194 µM (active) | 0.0489 µM (active) | 0.024 µM (active)
15 | O=C1C=C(N2CCCC2)C(=O)c2c(O)ccc(O)c21 | > 10 µM (inactive) | > 10 µM (inactive) | > 10 µM (inactive) | – | – | > 10 µM (inactive) | > 10 µM (inactive) | 3.93 µM (inactive) | > 10 µM (inactive) | – | > 10 µM (inactive) | > 10 µM (inactive) | 2.37 µM (inactive) | > 10 µM (inactive) | > 10 µM (inactive) | 1.71 µM (inactive) | > 10 µM (inactive) | – | > 10 µM (inactive)
16 | COc1ccc2oc(=O)c(CC=C(C)C)c(O)c2c1C | > 100 µM (inactive) | > 100 µM (inactive) | > 100 µM (inactive) | – | > 100 µM (inactive) | > 100 µM (inactive) | > 100 µM (inactive) | > 100 µM (inactive) | > 100 µM (inactive) | > 100 µM (inactive) | > 100 µM (inactive) | > 100 µM (inactive) | 36.4 µM (inactive) | > 100 µM (inactive) | > 100 µM (inactive) | > 100 µM (inactive) | > 100 µM (inactive) | > 100 µM (inactive) | > 100 µM (inactive)
